Entries after “also recorded” stand apart in the source; their conditions may differ.
How the values were obtained:
human ACE = human ACE (Homo sapiens, UniProt P12821); test: Degradation by ACE (HPLC of reaction products); assay type: in vitro ADME; settings: 100 μM peptide, 1.0 μg human ACE, reaction buffer pH 7.4, 2 hours at 37° C., HPLC UV 220 nm
Method: (§1) FIGS. 2A-4D show graphs depicting enzymatic digestion by angiotensin converting enzyme (ACE) of Ang-(1-7), Ang-(1-7)-ACCA^5, Ang-(1-7)-ACCA^6, and Ang-(1-7)-ACCA^3, respectively, in accordance with one aspect. The peptides (100 μM) were incubated with human ACE (1.0 μg) in reaction buffer for 2 hours at 37° C. in a final volume of 100 μL, and the reaction products assessed by HPLC (UV 220 nm).
Analogs with ACCA at position 5 (Ang-(1-7)-ACCA^5), position 6 (Ang-(1-7)-ACCA^6), and position 3 (Ang-(1-7)-ACCA^3) were assessed to determine whether the analogs were degraded by ACE. Ang-(1-7) served as the control. Specifically, 100 μM of one of the three analogs or Ang-(1-7) was incubated with 1.0 μg of human ACE in reaction buffer (25 mM Hepes, 125 mM NaCl, 10 μM ZnCl2, pH 7.4) for 2 hours at 37° C. in a final volume of 100 μL. The resultant reaction products were separated by high pressure liquid chromatography (HPLC) on a Phenomenex Aeris Peptide C18 column using a Shimadzu Prominence system and detected by UV analysis at 220 nm.

Human DPP III = target: T1, Human DPP III (Homo sapiens, UniProt Q9NY33); test: Degradation by DPP III (HPLC of reaction products); assay type: in vitro ADME; settings: 100 μM peptide, 1.0 μg human DPP III, 2 hours at 37° C., HPLC UV 220 nm
T1 sequence (Q9NY33 1-737): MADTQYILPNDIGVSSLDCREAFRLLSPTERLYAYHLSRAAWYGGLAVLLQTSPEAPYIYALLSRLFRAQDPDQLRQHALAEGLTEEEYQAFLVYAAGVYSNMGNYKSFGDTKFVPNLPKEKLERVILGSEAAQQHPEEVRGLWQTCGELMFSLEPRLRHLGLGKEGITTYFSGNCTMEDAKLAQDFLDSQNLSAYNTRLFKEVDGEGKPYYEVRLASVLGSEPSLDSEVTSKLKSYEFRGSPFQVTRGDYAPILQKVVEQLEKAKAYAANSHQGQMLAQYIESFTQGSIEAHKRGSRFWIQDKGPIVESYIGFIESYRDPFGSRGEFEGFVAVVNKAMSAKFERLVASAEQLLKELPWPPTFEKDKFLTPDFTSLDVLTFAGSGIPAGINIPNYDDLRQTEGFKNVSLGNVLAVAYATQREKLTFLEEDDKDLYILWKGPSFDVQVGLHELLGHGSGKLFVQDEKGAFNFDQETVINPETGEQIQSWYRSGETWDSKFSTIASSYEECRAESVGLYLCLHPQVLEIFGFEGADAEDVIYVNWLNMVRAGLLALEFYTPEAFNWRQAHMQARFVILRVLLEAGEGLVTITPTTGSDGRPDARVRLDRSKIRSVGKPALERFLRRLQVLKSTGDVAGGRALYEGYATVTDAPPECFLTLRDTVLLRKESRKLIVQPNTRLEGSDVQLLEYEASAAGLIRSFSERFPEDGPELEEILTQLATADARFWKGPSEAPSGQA
Method: as §1, with “3A-5D” for “2A-4D”, “dipeptidyl peptidase III (DPE III)” for “angiotensin converting enzyme (ACE)”, “DPE III” for “ACE”
The Ang-(1-7) and the analogs Ang-(1-7)-ACCA^5, Ang-(1-7)-ACCA^6, and Ang-(1-7)-ACCA^3 were assessed to determine whether they were resistant to metabolism by the enzyme dipeptidyl peptidase III (DPP III). DPP III metabolizes Ang-(1-7) at different sites as compared to ACE (Chappell et al., Front Endocrinol (Lausanne) 4:201 (pp. 1-13) (2014)). The incubation conditions and detection methods for the metabolism by DPP III were identical to that used to assess degradation by ACE as described in Example 3.

[1] = cited from earlier work

human ACE, sequence (P12821 30-1306): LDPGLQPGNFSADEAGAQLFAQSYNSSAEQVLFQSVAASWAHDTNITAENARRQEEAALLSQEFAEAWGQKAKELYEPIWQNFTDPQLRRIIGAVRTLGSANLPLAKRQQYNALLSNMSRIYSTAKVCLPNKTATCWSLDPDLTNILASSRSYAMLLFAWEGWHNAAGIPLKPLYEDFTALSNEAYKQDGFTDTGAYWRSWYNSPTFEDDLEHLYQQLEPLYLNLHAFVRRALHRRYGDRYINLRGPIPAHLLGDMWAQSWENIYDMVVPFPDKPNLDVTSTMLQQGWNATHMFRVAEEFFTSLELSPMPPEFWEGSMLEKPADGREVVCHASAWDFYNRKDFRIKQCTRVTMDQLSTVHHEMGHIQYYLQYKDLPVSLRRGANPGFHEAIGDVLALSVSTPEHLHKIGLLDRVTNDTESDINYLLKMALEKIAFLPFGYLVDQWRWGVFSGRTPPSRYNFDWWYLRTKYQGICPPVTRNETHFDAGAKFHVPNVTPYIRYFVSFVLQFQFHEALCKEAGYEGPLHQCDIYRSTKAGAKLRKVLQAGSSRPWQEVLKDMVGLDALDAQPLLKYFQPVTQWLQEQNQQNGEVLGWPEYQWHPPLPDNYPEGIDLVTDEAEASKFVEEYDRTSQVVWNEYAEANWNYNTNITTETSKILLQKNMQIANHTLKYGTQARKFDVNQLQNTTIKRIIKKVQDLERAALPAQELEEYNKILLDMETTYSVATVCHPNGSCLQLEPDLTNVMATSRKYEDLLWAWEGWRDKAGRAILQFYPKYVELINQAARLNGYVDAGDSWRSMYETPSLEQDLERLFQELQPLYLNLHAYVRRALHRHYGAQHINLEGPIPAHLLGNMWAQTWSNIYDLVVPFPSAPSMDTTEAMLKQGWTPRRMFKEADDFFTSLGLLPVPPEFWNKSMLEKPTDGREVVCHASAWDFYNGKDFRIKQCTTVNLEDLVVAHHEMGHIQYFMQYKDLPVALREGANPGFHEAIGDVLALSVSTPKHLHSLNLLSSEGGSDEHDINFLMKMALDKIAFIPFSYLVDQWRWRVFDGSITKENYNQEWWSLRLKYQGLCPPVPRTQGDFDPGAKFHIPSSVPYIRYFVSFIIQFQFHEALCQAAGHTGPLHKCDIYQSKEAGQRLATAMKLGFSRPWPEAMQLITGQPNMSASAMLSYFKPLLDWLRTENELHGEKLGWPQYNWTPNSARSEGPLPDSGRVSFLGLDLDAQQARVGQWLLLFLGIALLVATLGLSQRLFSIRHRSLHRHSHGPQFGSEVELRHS

CC[C@H](C)[C@H](NC(=O)[C@H](Cc1ccc(O)cc1)NC(=O)[C@@H](NC(=O)[C@H](CCCNC(=N)N)NC(=O)[C@@H](N)CC(=O)O)C(C)C)C(=O)N[C@@H](Cc1c[nH]cn1)C(=O)N1CCC[C@H]1C(=O)O [Ang-(1-7), Asp-Arg-Val-Tyr-Ile-His-Pro]
degradation / resistance to metabolism by ACE (human ACE): degraded to Ang-(1-5) and the dipeptide His-Pro; also recorded: readily degraded
degradation / resistance to metabolism by DPP III (Human DPP III): sequentially degraded; also recorded: readily degraded
half-life in plasma [1]: 30 min

— patent US20200216499A1, “ANGIOTENSIN-(1-7) ANALOGS AND METHODS RELATING THERETO” (WAKE FOREST UNIVERSITY HEALTH SCIENCES, priority 2015, published 2020)
